Source: US10532065B2, “Bisphosphonic acid derivative and application for same” (NAGASAKI UNIVERSITY, priority 2014, dated 2020)
Read-outs that look alike come from different tables or passages of the source.

Tests used:
Assay type in all cases: cell-based
[1] = system: U937 cells; assay: U937 cell growth inhibition (direct antitumor action, CellTiterGlo); conditions: for IC50: U937 cell growth inhibition, 4 days culture
Procedure: (§1) The direct antitumor action of bisphosphonic acid POM ester and bisphosphonic acid was studied by comparison using U937.
(§2) The direct antitumor action of various bisphosphonic acid POM esters was studied by comparison using U937 and EJ-1. The measurement was performed according to Experimental Example 2 and Experimental Example 4.

[2] = system: EJ-1 cells; assay: EJ-1 cell growth inhibition (direct antitumor action, CellTiterGlo); conditions: for IC50: EJ-1 (bladder cancer) growth inhibition, 4 days culture
Procedure: as §1
(§3) The direct antitumor action of bisphosphonic acid POM ester derivatives and bisphosphonic acids was studied by comparison using EJ-1. It was performed in the same manner as in Experimental Example 1 except that EJ-1 was used as the cell to be used. For recovery of the cells, a conventional EDTA trypsin treatment was performed.
as §3, with “POM esters” for “POM ester derivatives”, “Example 2” for “Example 1”
as §2

[3] = system: EJ-1 cells / γδ T cells; assay: TNF-α production from γδ T cells stimulated by compound-pretreated EJ-1 cells (indirect antitumor action, ELISA); conditions: for EC50: EJ-1 pretreated 4 hr with compound, 16 hr with γδ T cells, TNF-α ELISA, read-out: TNF-α50
Procedure: The indirect antitumor action of bisphosphonic acid POM esters and bisphosphonic acids was studied by comparison using EJ-1. In principle, EJ-1 is treated with a compound, washed, and reacted with γδ T cells, and the cytotoxic ability is studied by comparison, by quantifying TNF-α produced by γδ T cells during cell disordering. TNF-α is generally used as an index of γδ T cell induction ability and/or proliferative capacity, and γδ T cells are considered to be induced and/or proliferated in proportion to the TNF-α amount (Journal of Immunology, 154, 5986-5994 (1995)). Since the produced TNF-α is what is called a tumor necrosis factor, it is considered to have an action to lower proliferation of cancer cells or induce cell death.
Thereto was added a solution (500 μl) of compounds 3, 5, 6, 7, which are bisphosphonic acid POM ester derivatives, obtained by serially diluting 10 mM stock solution 10-fold from 20 μM, or a solution (500 μl) of bisphosphonic acid 10, 12, 13, 14 compound obtained by serially diluting 10-fold from 200 μM, and the cells were suspended well. These conical tubes were stood at 37° C. for 4 hr, and the cells were washed 3 times with 5 ml of culture medium. To these cells was added 500 μl of medium, and the cells were suspended well. […] The cell culture medium was suspended well, and the plate was centrifuged at 1,700 rpm, 4° C. for 2 min and the culture supernatant (150 μl) was taken and placed in another round-bottomed 96 well plate. The plate was frozen at −80° C. overnight, left standing at room temperature for 1 hr, stirred well and 100 μl thereof was subjected to ELISA of TNF-α. The content of TNF-α was calculated from the analytical curve of TNF-α. These were performed in triplicate, and a graph showing bisphosphonic acid POM ester derivative and the corresponding bisphosphonic acid as one pair was plotted. […] The results of bisphosphonic acid POM ester derivative are shown by -●-, and the results of bisphosphonic acid are shown by -◯-.
The indirect antitumor action of bisphosphonic acid POM esters and bisphosphonic acids was quantitatively studied by comparison using EJ-1. […] Thereto was added a solution (500 μl) of a bisphosphonic acid POM ester derivative obtained by serially diluting 10 mM stock solution 10-fold from 20 μM, or a bisphosphonic acid solution (500 μl) serially diluted 10-fold from 200 μM was added, and the cells were suspended well. These conical tubes were stood at 37° C. for 4 hr, and the cells were washed 3 times with 5 ml of culture medium. To these cells was added 500 μl of medium, and the cells were suspended well. […] The cell culture medium was suspended well, and the plate was centrifuged at 1,700 rpm, 4° C. for 2 min and the culture supernatant (150 μl) was taken and placed in another round-bottomed 96 well plate. The plate was frozen at −80° C. overnight, left standing at room temperature for 1 hr, stirred well and 100 μl thereof was subjected to ELISA of TNF-α. The content of TNF-α was calculated from the analytical curve of TNF-α. These were performed in triplicate, and a half of the concentration of compounds 1-7, which are bisphosphonic acid POM ester derivatives, and compounds 8-14, which are bisphosphonic acids, necessary for producing the maximum amount of TNF-α from γδ T cells was calculated as TNF-α50, and summarized in Table 6.
Therefore, the TNF-α50 value of various bisphosphonic acid POM ester derivatives was calculated. […] Thereto was added a solution (500 μl) of compounds 1-7 and 15-39, which are bisphosphonic acid POM ester derivatives, and compound 42, which is other bisphosphonic acid ester derivative, obtained by serially diluting 10 mM stock solution 10-fold from 20 μM, and the cells were suspended well. These conical tubes were stood at 37° C. for 4 hr, and the cells were washed 3 times with 5 ml of culture medium. To these cells was added 500 μl of medium, and the cells were suspended well. […]

Compound	IC50 [1] [µM]	direct antitumor activity (in words) ([1]; U937 growth inhibition)	IC50 [2] [µM]	direct antitumor activity (in words) ([2]; EJ-1 growth inhibition)	EC50 [3] [µM]	TNF-α production induction activity (in words) ([3]; EJ-1 pretreated with compound, γδ T cells)	IC50 ([1]; Homo sapiens, U-937, 96 h) [µM]	IC50 ([2]; EJ1, 96 h) [µM]	EC50 ([3]; EJ1) [µM]
CC(C)(C)C(=O)OCOP(=O)(OCOC(=O)C(C)(C)C)C(CNc1ccncn1)P(=O)(OCOC(=O)C(C)(C)C)OCOC(=O)C(C)(C)C [Compound 39, tetrakispivaloyloxymethyl 2-(pyrimidin-4-ylamino)ethylidene-1,1-bisphosphonate]	0.65	particularly high activity	0.059	particularly high activity	0.062	high activity	–	–	–
CC(=O)OCOP(=O)(OCOC(C)=O)C(CNc1ccccn1)P(=O)(OCOC(C)=O)OCOC(C)=O [Compound 42, tetrakisacetyloxymethyl 2-(pyridin-2-ylamino) ethylidene-1,1-bisphosphonate]	–	–	–	–	–	–	17	16	7.1
